Legend:
normal cells = assay: Median lethal dosage, summary over normal cells; assay type: cell-based; settings: mostly, normal cells of Table 1; read-out: median lethal dosages against normal cells
[1] = test system: pancreatic cancer cells Panc1; assay: Intraperitoneal injection of pancreatic cancer cells Panc1 in nude mice; assay type: in vivo; settings: for tumor in the pancreas: start 3 days after cell injection
Protocol: To further verify whether ethidium bromide can inhibit tumor migration in vivo, we injected 2×10^6 pancreatic cancer cells Panc1 intraperitoneally into nude mice, which were then divided into 3 groups: control group, gavage, and intravenous injection administration. Mice in the gavage-administration group were started with gavage oral administration of 20 mg/Kg ethidium bromide per day by gavage 3 days after intraperitoneal injection of pancreatic cancer cells. Mice in the intravenous administration group were administered with 5 mg/Kg ethidium bromide per day intravenously (Tail-IV) 3 days after intraperitoneal injection of pancreatic cancer cells.
In order to further investigate the anti-tumor effect of ethidium bromide on nude mice with advanced tumorigenicity and to obtain its effect on the viability of nude mice, we intraperitoneally injected the nude mice with 2×10^6 pancreatic cancer cells Panc1, which were then divided into 3 groups, the control group (no-treatment group), the early-injection group (administered intravenously after 3 days) and the late-injection group (administered intravenously after 14 days). Mice in the early injection group were administered with 5 mg/Kg ethidium bromide intravenously per day for 3 weeks 3 days after intraperitoneal injection of pancreatic cancer cells (starting intravenous administration after 3 days for about 3 weeks). Mice in the late injection group were administered with 5 mg/Kg ethidium bromide intravenously per day for 3 weeks starting 2 weeks days after intraperitoneal injection of pancreatic cancer cells (starting intravenous administration after 14 days for about 3 weeks).
In addition, we utilize the most advanced nuclear magnetic spectrometer uMR 9.4T with a 30 cm aperture magnet jointly developed by our work unit and Shanghai United Imaging Healthcare Co., LTD, as well as our self-developed GC, GPA, and VTC42 coils specially designed for abdominal scanning, and an optional PET insert system to achieve the PET-MR imaging results of the temporal and spatial integrality. The development of pancreatic cancer was followed dynamically in the control and dosing groups following intraperitoneal injection of pancreatic cancer cells. Mice were injected intraperitoneally with 2×10^6 pancreatic cancer cells, Panc1, and left for 2 weeks after which a visible tumor mass can be detected in the abdominal cavity to begin intravenous administration of 5 mg/Kg ethidium bromide for 4 weeks. […] Moreover, the abdominal cavity of the control mice was filled with ascites by the late stage (where the arrows are shown), whereas there was none in the dosing group (FIGS. 13A and 13B). […] However, clearance was not achieved mostly as in the previous results and we analyzed that it might be due to the fact that the mice were kept in a non-SPF environment during the whole administration period of MRI, thus affecting the effect of the drug.

CC[n+]1c(-c2ccccc2)c2cc(N)ccc2c2ccc(N)cc21 [ethidium bromide, Ethidium bromide]
IC50 (normal cells): > 50 µM | weight of the pancreas ([1]; administration group, especially intravenous injection, vs control): significantly smaller than that of the control group | body weights ([1]; dosing group, intravenous 5 mg/Kg per day, 3 weeks): relatively stable | pancreatic cancer tumor (weight) vs control ([1]; dosing groups, intravenous 5 mg/Kg per day, 3 weeks): significantly smaller than that in the control group | nude mice with no tumor ([1]; early injection group: intravenous 5 mg/Kg per day from day 3, 3 weeks): More than 80% | tumor in the pancreas ([1]; gavage 20 mg/Kg per day): still had a small amount of tumor, but was significantly smaller than that in the control group | tumor in the pancreas ([1]; intravenous 5 mg/Kg per day): no tumor was found in the pancreas | growth of pancreatic cancer in the abdominal cavity (MRI) ([1]; intravenous 5 mg/Kg, start 2 weeks after cell injection, 4 weeks): significantly inhibited, or almost completely inhibited | body weight ([1]; intravenous injection compared with gavage): did not cause a significant decrease in body weight | blood hemoglobin ([1]; late dosing group, intravenous 5 mg/Kg per day, 3 weeks): remained relatively normal | tumors in the liver tissues vs control ([1]; late injection group): significantly reduced | nude mice with no tumor at all ([1]; late injection group: intravenous 5 mg/Kg per day from day 14, 3 weeks): about 45% | weights of liver and pancreatic tissues vs control ([1]; late-injected group): significantly smaller

— patent US20250152577A1, “Pharmaceutical Composition of Ethidium Bromide and Use in Treating Cancer” (RUIJIN HOSPITAL, SHANGHAI JIAOTONG UNIVERSITY SCHOOL OF …, priority 2022, published 2025)
